Assay results as given in article PMC9705314, “Characterization of a new potent and long-lasting single chain peptide agonist of RXFP1 in cells and in vivo translational models” (Scientific Reports, 2022).

Target: T1, hRXFP1 (S69P) (Homo sapiens, UniProt Q9HBX9, S69P)
T1 sequence (Q9HBX9 1-757 S69P): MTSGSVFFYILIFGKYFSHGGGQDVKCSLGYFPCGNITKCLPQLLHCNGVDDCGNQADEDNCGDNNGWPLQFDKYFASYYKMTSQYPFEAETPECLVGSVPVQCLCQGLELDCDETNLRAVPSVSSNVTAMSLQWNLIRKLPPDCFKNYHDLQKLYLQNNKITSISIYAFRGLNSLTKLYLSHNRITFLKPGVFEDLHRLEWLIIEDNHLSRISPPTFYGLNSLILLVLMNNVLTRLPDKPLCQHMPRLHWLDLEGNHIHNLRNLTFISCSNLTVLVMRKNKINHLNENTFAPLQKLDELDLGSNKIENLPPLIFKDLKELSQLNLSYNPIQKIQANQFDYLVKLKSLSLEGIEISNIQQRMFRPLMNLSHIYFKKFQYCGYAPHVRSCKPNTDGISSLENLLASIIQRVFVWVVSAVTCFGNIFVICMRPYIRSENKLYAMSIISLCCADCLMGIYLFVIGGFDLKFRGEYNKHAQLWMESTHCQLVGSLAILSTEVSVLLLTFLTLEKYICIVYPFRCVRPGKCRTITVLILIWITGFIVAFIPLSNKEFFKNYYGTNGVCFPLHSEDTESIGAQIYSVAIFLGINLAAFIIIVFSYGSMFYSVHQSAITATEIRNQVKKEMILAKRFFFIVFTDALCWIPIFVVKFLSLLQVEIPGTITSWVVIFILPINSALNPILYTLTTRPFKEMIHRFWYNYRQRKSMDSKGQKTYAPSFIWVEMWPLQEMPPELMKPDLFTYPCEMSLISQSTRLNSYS
Experiment: cAMP production in HEK cells expressing hRXFP1 (S69P)
Type: cell-based
Conditions: hRXFP1 S69P mutant, n = 4 experiments in duplicate
Protocol: HEK cells were stably transduced with lentiviral constructs (Vectalys, MOI 20, batches rV2.1A1.5057 B, rV2.1A1.5056 B and rV2.1A1.5059 B) containing a bicistronic vectors encoding hRXFP1 (S69P) or hRXFP1 (F76V) or hRXFP1 (S69P/F76V) under the EF1 promoter followed by an internal ribosome entry site (IRES) elements to express the neomycin antibiotic resistance gene for selection with 500 μg/mL Geneticin (Invitrogen, #10131-019). Three days post transduction, HEK cells were grown in the presence of Genetecin. Positive individual clones were selected and amplified, and cAMP readout (nM) was used as described for other cell types at a cell density of 8000 cells/well.

relaxin
cAMP response (efficacy): reduced in all RXFP1 mutants compared to the wild type construct
